The source of these data is ChEMBL document CHEMBL3826874, “Exploring new scaffolds for angiotensin II receptor antagonism” (Bioorg Med Chem, 2016).

The target in experiment [1] is T1, Type-1 angiotensin II receptor (Homo sapiens, UniProt P30556).
T1 sequence (P30556 whole entry): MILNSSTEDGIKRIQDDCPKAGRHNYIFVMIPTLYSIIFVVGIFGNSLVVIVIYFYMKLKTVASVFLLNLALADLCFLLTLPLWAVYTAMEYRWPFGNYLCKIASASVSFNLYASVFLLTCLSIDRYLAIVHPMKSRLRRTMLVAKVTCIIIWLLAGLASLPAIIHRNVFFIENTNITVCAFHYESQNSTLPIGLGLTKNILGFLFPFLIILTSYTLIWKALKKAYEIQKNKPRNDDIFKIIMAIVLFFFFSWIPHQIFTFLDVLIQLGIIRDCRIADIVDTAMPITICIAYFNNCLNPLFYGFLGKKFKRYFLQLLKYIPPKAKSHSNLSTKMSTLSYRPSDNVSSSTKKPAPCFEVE
Briefly: (§1) Displacement of [125I-Sar1-Ile8]Ang2 from human AT1 receptor expressed in HEK293 cell membrane incubated for 1 hr by gamma counting method. As to conditions: for IC50: read-out: pIC50 (converted). It counts as cell membranes.

The target of experiment [2] is T2, Type-1 angiotensin II receptor (Homo sapiens) (UniProt P30556).
T2 sequence (whole entry): T1 sequence (P30556 whole entry)
Described as §1. The format is cell membranes.

pIC50: −log10 of the molar value.

For the compound `CN(Cc1cn(-c2ccccc2)nc1-c1ccc(Cl)cc1)C(=O)CCC(=O)O`, the pIC50 in experiment [1] (read-out: IC50) was 6.70. In addition, the inhibition result in experiment [2] is “Dose-dependent effect”.
As for `CN(Cc1cn(-c2ccccc2)nc1-c1ccc(F)cc1)C(=O)CCC(=O)O`, the IC50 in experiment [1] was 2570 nM. Moreover, the inhibition result in experiment [2] was “Dose-dependent effect”.
With `Cc1ccc(CN(c2ccc(C(=O)NCc3ccccn3)cc2)S(C)(=O)=O)cc1`, in experiment [1], the IC50 was 2090 nM. Also, the inhibition result in experiment [2] was “Dose-dependent effect”.
For `Cc1ccc(C)c(NC(=O)CN(C)C(=O)c2ccc(S(=O)(=O)N3CCCCCC3)cc2)c1` the same measures were 2190 nM and “Dose-dependent effect”.
